In paper PMC5512454 (Bioorganic & medicinal chemistry, 2017):

Experiments:
human D3 receptor = human D3 receptor (Homo sapiens, UniProt P35462); assay: Radioligand displacement assay, hD3
[1] = system: food-maintained responding; assay: Food-maintained behavior in rhesus monkeys; type: in vivo
[2] = system: cocaine-maintained responding; assay: Cocaine self-administration in rhesus monkeys; type: in vivo
[3] = system: dopamine D3 receptors in vivo; assay: PET imaging study in rat
[4] = system: D3 receptors in rat brain; assay: Ex-vivo autoradiography of coronal rat brain sections; type: in vivo; details: co-injection of BP897; region of interest-to-background ratios; 60 min p.i.
[5] = target: D3 receptors in rat brain slices (Rattus norvegicus, UniProt P19020); assay: In-vitro autoradiography of coronal rat brain slices; type: binding; details: proven by displacement with BP897 (1 μM)
Chain of D3 receptors in rat brain slices (P19020 whole entry): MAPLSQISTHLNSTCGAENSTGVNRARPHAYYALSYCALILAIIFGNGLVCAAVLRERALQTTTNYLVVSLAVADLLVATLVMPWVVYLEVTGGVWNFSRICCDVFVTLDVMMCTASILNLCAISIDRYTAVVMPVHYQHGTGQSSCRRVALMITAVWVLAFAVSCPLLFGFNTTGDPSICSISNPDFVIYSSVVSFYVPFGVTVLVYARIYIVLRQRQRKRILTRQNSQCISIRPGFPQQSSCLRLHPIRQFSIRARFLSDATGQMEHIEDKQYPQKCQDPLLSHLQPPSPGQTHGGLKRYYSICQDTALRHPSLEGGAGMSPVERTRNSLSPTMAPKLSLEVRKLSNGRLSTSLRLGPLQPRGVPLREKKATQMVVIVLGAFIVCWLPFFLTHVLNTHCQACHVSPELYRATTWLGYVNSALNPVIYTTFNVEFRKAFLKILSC

Chain of human D3 receptor (P35462 whole entry): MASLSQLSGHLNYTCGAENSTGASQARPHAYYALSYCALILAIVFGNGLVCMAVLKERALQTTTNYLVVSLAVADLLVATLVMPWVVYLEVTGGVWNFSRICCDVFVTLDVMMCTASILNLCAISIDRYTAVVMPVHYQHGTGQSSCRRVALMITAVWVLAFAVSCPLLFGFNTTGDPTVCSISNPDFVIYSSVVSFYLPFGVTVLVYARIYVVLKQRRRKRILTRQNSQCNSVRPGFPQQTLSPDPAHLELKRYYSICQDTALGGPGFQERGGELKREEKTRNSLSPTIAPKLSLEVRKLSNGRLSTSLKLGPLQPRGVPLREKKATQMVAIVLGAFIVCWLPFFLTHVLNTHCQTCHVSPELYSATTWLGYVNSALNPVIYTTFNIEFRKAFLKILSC

CC(C)(C)c1nc(N2CCN(CCCCNC(=O)c3cc4ccccc4s3)CC2)cc(C(F)(F)F)n1 [Compound 9, N-(4-(4-(2-tert-butyl-6-(trifluoromethyl)pyrimidin-4-yl)piperazin-1-yl)butyl)benzo[b]thiophene-2-carboxamide]
D3 selectivity over all biogenic amine receptors investigated (human D3 receptor): 1000–20000 fold

COc1ccccc1N1CCN(CCCCNC(=O)c2cc3ccccn3n2)CC1 [Compound 1]
Food-maintained responding following the i.v. self-administration component (food 2) ([1]; food 2): did not appreciably alter | Reduction of food-maintained behavior during food 1 session ([1]; pretreatment 0.32 mg/kg, food 1 (before cocaine component)): approximately 30% | Food 1 and 2 responding at low and intermediate doses ([1]; pretreatment 0.1 and 0.18 mg/kg): did not markedly decrease | Duration of action of behaviorally active doses ([1]; suggested from food 2 components in sessions of i.v. saline availability): < 2 h | Cocaine-maintained responding, % of control values ([2]; pretreatment 0.32 mg/kg, 0.03 mg/kg per injection i.v. cocaine, group average): approximately 20% | Effect of various pretreatment doses on cocaine-maintained responding ([2]; various doses (Figure S2)): dose-related decreases

O=C(NCCCCN1CCN(c2ccccc2OCC[18F])CC1)c1cc2ccccn2n1 [[^18F]2, N-[4-[4-(2-[^18F]fluoroethoxyphenyl)-piperazin-1-yl]-butyl]-pyrazolo-[1,5-a]pyridin-2-carboxamide]
Blood-brain-barrier (BBB) penetration [3]: only low blood-brain-barrier (BBB) penetration | Brain uptake of the radioligand in CNS structures [3]: marginal brain uptake | Reduction of uptake in the pituitary gland by pretreatment with BP897 [3]: 25% | Mean whole pituitary gland uptake of the radioligand ([3]; 40 min p.i.): 0.394 ± 0.016 % ID/g | Radioligand displaced by BP897, third ventricle (3V) [4]: 5–14% | Binding in rat brain slices, in-vitro autoradiography [5]: D3-specific binding
